Data as given in patent publication US8580749B2, “Peptide-coated cell localization to diseased or damaged tissues and methods related thereto” (Cell Targeting, Inc., priority 2009, dated 2013).
No end group written: not given here. *: point of attachment. Palmitoyl = CCCCCCCCCCCCCCCC(=O)*

How the values were obtained:
heart tissue = test: Homing of peptide-coated MSCs in mouse MI reperfusion model; assay type: in vivo, C57BL6 mice; details: for distribution of cells within heart tissue: coated MSCs, 1 hour circulation, day after 30 minute ischemia/reperfusion
Protocol: C57BL6 mice were operated on with a sterile surgical technique. Mice were anaesthetized and intubated. A longitudinal incision was made in the thorax and the heart elevated. The left anterior descending artery was identified, and a ligature suture was placed around the artery and tightened down over a piece of polyethylene tubing placed above the artery, as shown in FIG. 1. After 30 minutes the ligation was released, the chest closed and the mouse was allowed to recover. The following day the mouse was again anaesthetized and intubated, the thoracotomy re-opened and cells administered through the left ventricle (1×10^6 cells). Cells were allowed to circulate for 1 hour before blood was collected into EDTA tubes and the mouse sacrificed via exsanguination. Blood was collected just prior to exsanguination to provide samples for assay of Troponin I levels.
Sections were cryosectioned 8 microns thick, mounted in sequence onto slides and viewed for the fluorescent label of the cells.
Histology sections of cardiac tissues were examined for VYBRANT® (CDFA SE; Invitrogen) green-labeled cells to determine the cells' propensity to target or home to distinct regions of the tissues, especially those associated with the infarcted region. Outcomes were evaluated via quantitative fluorescent microscopy of infarcted and non-infarcted tissues. Area in millimeters squared were calculated from representative cross-sections and numbers of cells were counted on a series of sections taken through the heart.
Sections of heart tissue were also analyzed using fluorescent microscopy. Five slides containing six sections per slide were analyzed. On each section a count of the number of cells was made. The count was then normalized against the area of the centre section on that slide.
An enzyme-linked immunosorbent assay (ELISA) (Life Diagnostics, Inc., Cat. No. 2010-1-HSP) of cardiac troponin I was made on the plasma collected from each mouse according to the manufacturer's method. Briefly, 60 μl of plasma sample was diluted with 180 μl plasma diluent. Standards and samples (100 μl) were added to coated wells containing 100 μl of cardiac troponin I horse radish peroxidase conjugate. These were mixed on an orbital shaker at room temperature for 1 hour. This solution was removed and the wells were washed thoroughly; 100 μl of tetramethylbenzidine reagent was then added to each well. This was incubated on the orbital shaker at room temperature for 20 minutes, then stop solution was added (100 μl) and the absorbance read at 450 nm (Tecan Genios Pro).

ischemic hindlimb = test: Fluorescent peptide homing studies, mouse hindlimb ischemia model; assay type: in vivo; details: for tissue to which the peptide homed: fluorescent peptide studies; for homing of peptide in the mouse ischemic hindlimb: cryosections, FIG. 16
Protocol: Four palmitated peptides were synthesized: SK(biotin)[…] […] Human mesenchymal stem cells (hMSCs) were transiently coated with the four palmitated peptides and fluorescently labeled with Vybrant dye. […] MSCs were grown in DMEM/FBS (10%) supplemented with FGF (5 ng/ml), then trypsinized, washed with DMEM and aliquoted at 1 million cells/vial and resuspended in Tyrodes. […] Cell solutions were then centrifuged (200 RCF, 5 min, r.t.), washed twice with cold Tyrodes, then incubated for 20 min with 20 μg/ml streptavidin-PE (S866 Invitrogen), washed with Tyrodes, fixed with formalin, and then assessed using flow cytometry and epifluorescent microscopy.
For animal experiments, MSCs were first incubated with Vybrant green (CDFA SE; Invitrogen) washed with Tyrodes, then coated with 50 μg/ml PA-peptides for 10 min at 37° C. with shaking. Following coating, cells were washed with Tyrodes twice and resuspended to give 5×10^6 cells/ml. Ischemia was produced in the left hind-limb through ligation and severing of the femoral artery in mice. Three days post ischemia, mice were injected with […] through the subclavian vein and cells allowed to circulate for two hours before sacrifice. Distribution of injected MSCs was monitored by whole-body (“Xenogen”) fluoroscopy. Animals were sacrificed and tissues (heart, lung, liver, spleen, kidney, left calf muscle, left femur muscle, right calf muscle and right femur muscle) were harvested and fluorescence histology was done on tissue cryosections.

[1] = system: human mesenchymal stem cells (MSCs); test: MTT toxicity assay of PA-peptides; assay type: cell-based; details: 1 hour incubation
Protocol: Human mesenchymal stem cells (MSCs) were seeded on 96-well plates (5.8×10^3 cells/well; DMEM/FBS 10%) and allowed to grow/adhere for 2 days. Media was removed and PA-peptides were added (0-0.1 mg/ml) to the cells. Toxicity was assessed after 10 minute incubation and 1 hour incubation. Acute effects were assessed immediately following the 10 minute exposure, and longer-term effects were measured the next day after the 10 minute exposure and the 1 hour exposure. Toxicity was assessed using the MTT method. Briefly, 20 μl of MTT (5 mg/ml in PBS, sterile filtered, Corning 0.22 μm Polyethersulfone) was added to each well and the plate was then incubated for 4 hours at 37° C. Media containing MTT was then carefully removed and 100 μl of dimethyl sulfoxide (DMSO) was added to each well. Plates were incubated for a further 30 minutes at 37° C. to solubilize the purple formazan crystals, and absorbance was then measured using a plate reader (570 nm; Tekan Genios Pro).

heart = test: Phage screen of 12 phage in mice with myocardial infarction; assay type: in vivo; details: for time point preference of heart localization after infarct: 1, 3 and 7 days post-MI; for preferential localization of phage-displayed peptide in the heart: mice 1, 3 and 7 days after MI, phage circulated 10 minutes
Protocol: A limited phage screen of 12 phage was performed in a study against mice with myocardial infarction (MI) lasting 1, 3 and 7 days. This panel of phage was selected to include phage with a greater potential for injured tissue, a positive non-specific control and a negative control phage. All publications and references cited in FIG. 24 are incorporated by reference to the extent such incorporation is not contrary to the invention described therein. Nothing herein is to be construed as an admission that the invention is not entitled to antedate such disclosure by virtue of prior invention.
Amplified phage were mixed in a 1:1 ratio and 200 μl injected at 1×10^9 pfu/ml into animals 1, 3 and 7 days after myocardial ischemia was produced. Phage were allowed to circulate for 10 minutes before the animal was perfused through the left ventricle with warmed DMEM/BSA (1%, ˜10 ml) with the right ventricle cut. Tissues (heart, lung, liver, spleen, kidney) were then harvested and stored on ice in 1 ml of DMEM/BSA (1%) before homogenization (Omni International TH homogenizer). Four washes were performed using PBS/BSA (1%) with centrifugation at 2800 RCF (5 min, 4° C.) and resuspension in PBS/BSA (1%). After the final wash, homogenates were weighed then lysed with 100 μl Triton-X-100 (1% in PBS) on ice for 15 minutes; 900 ul of BLT5403 (OD 600) was then added and incubated for 10 minutes (r.t.). This solution was then serially diluted in LB+CarbenicilHn and 240 ul aliquots taken into 1.2 ml BLT5403 and 600 μl plated on 10 cm agar plates with 4 ml top agar. Following overnight incubation, plaques were counted and the pfu/g tissue homogenate was calculated. Plaques were picked into 30 μl of PBS, 1 μl of this solution was transferred into 14 μl PCR mix (GoTaq Green Master Mix 7.5 μl, 1.5 μl 5 μM T7down (AACCCCTCAAGACCCGTTTA (SEQ ID NO: 13)), 1.5 μl 5 μM T7 Superup (AGCGGACCAGATTATCGCTA (SEQ ID NO: 24)), 3.5 μl of DNAse free water). This mix was then subjected to polymerase chain reaction (PCR) (1 cycle of 5 min 94° C.; 35 cycles of 94° C. 30 s, 50° C. 30 s, 72° C. 1 min; 1 cycle 72° C. 1 min; hold at 4° C.). The PCR samples then underwent cleanup and sequencing.

ischemic hearts = test: Uptake and localization of fluorescently labeled CRPPR in ischemic hearts; assay type: in vivo, mouse; details: 30 minutes, 6 hour and 24 hour ischemia
Protocol: Fluorescently labeled CRPPR (SEQ ID NO: 1) was also studied for uptake and localization in ischemic hearts (30 minutes, 6 hour and 24 hour ischemia). This fluorescently labeled peptide was injected through the subclavian vein and allowed to circulate for two hours before sacrifice. Tissues (heart, lung, liver, spleen and kidney) were harvested, placed in TISSUE-TEK® molds and frozen in OCT cryomounting medium. The tissues were stored on dry ice until being placed at −80° C. and 8-10 μn sections were made.
Sections of heart tissue through different regions of the heart were imaged using a fluorescent microscope and CCD camera. The images were then assessed for total fluorescence using ImageJ (Image Processing and Analysis in Java) (see FIG. 2).

[2] = system: human mesenchymal stem cells (MSCs)
Protocol: MSCs were grown in Dulbecco's Modified Eagle's Medium (DMEM) and fetal bovine serum (FBS) (10%) supplemented with fibroblast growth factor-2 (FGF-2) (5 ng/ml) for 1 week. They were then trypsinized, washed with DMEM, aliquoted at 1 million cells/vial and resuspended in Tyrodes' balanced salt solution. […] was later used throughout the coating procedure. […] Cell solutions were centrifuged (200 RCF, 5 min, r.t.), washed twice with cold Tyrodes solution, then incubated for 20 minutes with 20 μg/ml streptavidin-PE (S866 Invitrogen), washed with Tyrodes solution, fixed with formalin, and then assessed using flow cytometry and epifluorescent microscopy.

| Substance | distribution of cells within heart tissue (heart tissue) | tissue to which the peptide homed (ischemic hindlimb) | preferential localization of phage-displayed peptide in the heart (heart) | further results |
| --- | --- | --- | --- | --- |
| PA-KSTRKS (Palmitoyl-KSTRKS) [palmitated peptide (cell paint)] | distributed cells with some localization in vessels | homed to ischemic skeletal muscle tissue |  | concentrations causing a decrease in mitochondrial activity [1]: ≥ 50 µg/mL |
| CRPPR (not fully specified) |  |  | some preferential localization in the heart | time point preference of heart localization after infarct (heart): some preference for the earlier time point after infarct; ischemia time at which localization was most pronounced (ischemic hearts): most pronounced after 24 hour ischemia; localization of fluorescent peptide in heart tissue (ischemic hearts; two hours circulation): localize in heart tissue |
| PA-SK(Biotin)NSCARSKNKDC [PA-BioCAR] | distributed throughout the cardiac muscle | homed to ischemic skeletal muscle tissue |  | correlation between heart damage (cardiac troponin I) and cell number (heart tissue; FIG. 14): more cells localizing in the heart after relatively larger damage; cell labeling by the peptide ([2]; FIGS. 4 and 5): labeled the cells efficiently; cell-associated fluorescence ([2]; PA-BioCAR 0 to 2 mg/ml, 10 minutes, 37° C., streptavidin-PE): increasing cell-associated fluorescence with increasing PA-BioCAR concentration |
| CARSKNKDC (Targeting Sequence 5) |  |  | some preferential localization in the heart |  |
| CGLIIQKNEC (Targeting Sequence 3) [Clot1, homing peptide] |  |  |  | homing of peptide in the mouse ischemic hindlimb (ischemic hindlimb): homing |
| PA-CRPPR (Palmitoyl-CRPPR) [palmitated peptide (cell paint)] | some localization with vasculature | homed to cardiac tissue |  |  |
| CRKDKC (cysteine pairing not given here; also: fluorescent label, position not given here) |  |  | some preferential localization | homing of peptide in the mouse ischemic hindlimb (ischemic hindlimb): homing |
| PA-CRKDKC (Palmitoyl-CRKDKC; cysteine pairing not given here) [palmitated peptide (cell paint)] | papillary fibers have a higher concentration of cells than the cardiac muscle | homed to ischemic muscle tissue |  |  |
| CREKA (Targeting Sequence 8) |  |  | some preferential localization in the heart | time point preference of heart localization after infarct (heart): three day time point |
